Experimental data published in a melting point compilation (Tetko et al.; mined from patent text by program, amines drawn as free bases though some values may be those of a salt).

Compound	melting point
CN1CCN(C)C(c2ccc(Nc3nc(Br)cn(C)c3=O)cc2)C1=O (stereo not given)	206 to 207 °C
CCOC(=O)C(C(=O)Nc1ccc(Br)cc1C)[N+](=O)[O-] (stereo not given)	126 to 129 °C
CN(C)c1ccc(C2(CN)CCCC2)cc1	87 to 89 °C
CN(C)c1ncc(CN2C(=O)C3(COc4cc5c(cc43)OCO5)c3ccccc32)s1 (stereo not given)	200 to 202 °C
CCOC(=O)c1cnn(-c2ccc(OCC3CC3)c(C#N)c2)c1	147 to 149 °C
CN(C)Cc1ccc(CSCCN=CNS(=O)(=O)c2ccc(Cl)cc2)o1	93 to 96 °C
CCC(=NO)c1ccc(Oc2cc(F)cc([C@@]3(OC)CCO[C@@H]3C)c2)cc1 (racemic)	94 to 96 °C
CCN1C(=O)C(C)(C)C(=O)N(C)c2cc(CN(CCn3cc(C)c4occc4c3=O)Cc3cncn3C)ccc21	100 to 105 °C
CC(C)(SCC(N)=O)c1ccc2c(c1)OCO2	70 to 71.5 °C
COc1cccc(CN2CCCc3cc(O)c(OC)cc3C2)c1	114 to 115 °C
NC(=O)c1c(F)cccc1C(F)(F)F	143 to 144 °C
O=C(O)Cc1cccc(CCNC(=O)C2Cc3ccccc3N2S(=O)(=O)c2ccc(-c3cccc(C(F)(F)F)c3)cc2)c1 (stereo not given)	90 °C
CCCOc1ccc(S(=O)(=O)NC)cc1C1=NC(=O)C2=NC=NC2=N1	245 to 246 °C
CCOC(=O)CC(=O)c1cc2cc(F)c(F)cc2nc1Cl	107 °C
Nc1sc(-c2cc(F)cc(F)c2)c(CN(C2CCCCC2)C2CCCCC2)c1C(=O)c1ccc(Cl)cc1	163 to 166 °C
O=C(O)COn1cccn1	99 °C
Cc1ccc2c(c1)c(-c1ccc(F)cc1)cn2N1CCN(C)CC1	105 to 107 °C
CC12C=CC(=O)C(N=C=S)=C1C=CC1C2CCC2(C)C(=O)CCC12 (stereo not given)	146 to 166 °C
COc1ccc2sc(C(N)=O)c(SCCN3CCOCC3)c2c1	158 to 160 °C
NC(=O)N1C(=O)C(C(=O)c2cccs2)c2nc(Cl)c(Cl)cc21 (stereo not given)	237 to 240 °C
Cc1cc2c(cc1Cl)NC(=O)CC(c1cccc(-c3ccnc(CNC4CC4)c3)c1)=N2	171 °C
NC(=O)C(O)C1OC(n2cnc3c(N)ncnc32)C(O)C1O (stereo not given)	220 to 222 °C
Cc1cc(C(=N)NO)cn2cc(-c3cccc(-c4ccc(C(=N)NO)cc4)c3)nc12	193 to 195 °C
O=Cc1ccc2oc3ncccc3c(=O)c2c1	233 to 235 °C

Compound	melting point
N#Cc1nn(-c2c(Cl)cc(C(F)(F)F)cc2Cl)c(N)c1-c1ccccc1F	197 °C
CC(C)(C)OC(=O)NC(Cc1ccccc1)C(=O)Nc1nc(CC(=O)O)cs1 (stereo not given)	189 to 190 °C
CC1CCCCC1OC(=O)c1ncn2c1C1CCCN1C(=O)c1c(Cl)cccc1-2 (stereo not given)	213 to 215 °C
CCCCCCCCCCCCCCc1onc(C(=O)OC)c1O	92 °C
CCOC(=O)C1CN(CC)c2nc3cc(F)c(F)cc3cc2C1=O (stereo not given)	152 °C
CCOC(=O)C(Cl)=Cc1cccc([N+](=O)[O-])c1	75 °C
O=[N+]([O-])c1ccc(-c2oncc2CO)cc1	170 to 171 °C
Cc1ccc(S(=O)(=O)N2CCCC2c2ccc(F)c(F)c2)cc1 (racemic)	127 °C
C#CC1(OC(C)=O)CCC2C3CCc4cc(OC)ccc4C3CCC21CC (stereo not given)	178 to 182 °C
OC(CN1CCNCC1)C(O)(c1ccccc1)C1CCCC1 (stereo not given)	50 °C
CCCN(CCC)c1nc2c(N3CCCCCC3)nc(N3CCCCCC3)cc2c(=O)[nH]1	220 °C
COc1ccc2nn(C)cc2c1C1CC1CNC(C)=O (stereo not given)	104 to 105 °C
CN(C(C)(C)C)S(=O)(=O)CC(N)=O	105 to 109 °C
COC1=C(c2csc(NC(=O)c3cc4ccccc4[nH]3)n2)C=CC(Cl)(OC)C1 (stereo not given)	293 °C
c1ccc(CN2CCN(c3nc4c(c(N5CCOCC5)n3)SCCC4)CC2)cc1	125 °C
CN(c1ncc(Br)cn1)[C@H]1CC[C@H](C#CCO)CC1	156 to 157 °C
COc1ccc(CS(=O)(=O)c2cc3c(OC)cc(OC)cc3oc2=O)cc1	183 to 185 °C
COC1(OC)CN(c2nc3c(cc2F)C=C(C(=O)O)CN3c2ccc(F)cc2F)CC1C (stereo not given)	179 to 182 °C
CC(C)(C)c1cc2c(c(C(=O)Nc3ccc(S(=O)(=O)C(F)(F)F)cc3Cl)c1O)CCO2	201 to 202 °C
O=C1COC2CCCc3nc4ccccc4c(c32)N1 (stereo not given)	173 to 175 °C
CN(C)c1ccc(NC(=O)N(C)c2cccc(-c3ccc(CC(Nc4ccccc4C(=O)c4ccccc4)C(=O)O)cc3)c2)cc1 (stereo not given)	130 °C
Cc1cc(Cl)ccc1N=CNN=C(c1ccc(Cl)cc1)c1ccc(OS(C)(=O)=O)cc1	60 to 100 °C
Cc1oc(-c2ccccc2)nc1COc1ccc(COc2cccnc2CC#N)cc1	138 to 139 °C
C#Cc1ccc2ccc(OC(CC)C(=O)NC(C)(C)CO)cc2c1 (stereo not given)	81 to 82 °C

Compound	melting point
Cc1ccccc1-c1cccc2c1CCn1cc(-c3ccccc3)nc1C2OC1CCN(C)CC1 (stereo not given)	94 °C
CN1CCC(N(C2CC2)S(=O)(=O)c2ccc(Nc3nccc(Nc4ccc(F)cc4)n3)cc2)CC1	218 °C
Cc1cccc(-c2[nH]c(C(C)C)nc2-c2cccc(-c3cccnc3)c2)n1	74 to 77 °C
CC(CN1C(=O)c2ccccc2C1=O)c1c[nH]c2ccc(C#N)cc12 (stereo not given)	218 to 220 °C
Nc1ccc2ccc(-c3ccc(Cl)cc3)nc2n1	130 °C
COC(=O)C=Cc1ccc2c(c1)OCCO2	66 to 68 °C
CCC(=O)Nc1c(C)c(C)c2c(c1C)CC(C)(C)O2	146 °C
O=C(NC(CC1CCCC1)C(=O)NC1CCCN(S(=O)(=O)c2ccccc2)CC1=O)c1ccco1 (stereo not given)	88 to 90 °C
COc1ccc(-c2csc(NN=Cc3cn(Cc4ccc(Cl)cc4Cl)c4ccccc34)n2)cc1OC	205 °C
CC(C)(C)OC(=O)N[C@H]1CC[C@H](CCN2CCN(c3cc(C#N)cc(C(F)(F)F)c3)CC2)CC1	139 to 140 °C
Cc1cc(C)c(-n2ccc3c(N)n[nH]c(=O)c32)c(C)c1	290 to 292 °C
CC(C)(C)OC(=O)N1CCC2(CC1)C(=O)Nc1ccccc12	138 to 140 °C
Cc1ccc(/C=C/c2c(C(C)C)nc(C(C)C)c(CO)c2-c2ccc(F)cc2)cc1	131 to 133 °C
COc1c(Cl)cc(F)c(I)c1F	62 to 64 °C
Cc1cc(C#C[Si](C(C)C)(C(C)C)C(C)C)n(-c2ccc([N+](=O)[O-])cc2)n1	71 to 73 °C
COCCOc1ccc(CCC(=O)NS(=O)(=O)CCC(C)C)c(Oc2ncc(C(F)(F)F)cc2Cl)c1	130 to 132 °C
CCCCOC(=O)C=C(C)C=CC=C(C)C=Cc1c(C)cc(OC)c(C)c1C	80 to 81 °C
COCCN=Cc1cc(OC)c(OC)cc1[N+](=O)[O-]	65 to 66 °C
C=CCOC(=O)c1ccc(OC(=O)c2ccc(O)c(C34CC5CC(CC(C5)C3)C4)c2)cc1	175 to 177 °C
CC(CS)C(=O)N1CC2CCCCC2C1C(=O)O (stereo not given)	119 to 129 °C
CCCOCCN(CC)c1ccc(-c2ccc3c(c2)C=C(C(=O)Nc2ccc(CN(C)C4CCOCC4)cc2)CCS3(=O)=O)cc1	172 to 175 °C
CCN1CCCC1CNC(=O)c1cc(-n2cnnn2)ccc1OC (stereo not given)	171 to 174 °C

The remaining lines, values ahead:

melting point	Compound
85 to 87 °C	CCCSc1cc(C(=O)O)cc(S(N)(=O)=O)c1-c1ccccc1
165 to 167 °C	Cc1nnc2ccc(-c3cccc(Cl)c3)nn12
177 to 179 °C	NC(=O)Cn1ccc2ccccc21
91 to 93 °C	CS(=O)(=O)CCOC(=O)NCCSc1ccc2nccn2n1
216 to 218 °C	O=P(c1ccccc1)(c1ccccc1)c1cc(O)ccc1O
59 to 61 °C	CCCN(C(=S)n1ccnc1)c1ccccc1Cl
98 °C	CCN(CC1CCCC1)c1nc2ccccc2cc1CN(Cc1cc(C(F)(F)F)cc(C(F)(F)F)c1)C(N)=S
113 to 115 °C	CSC(C(=O)c1cc(-c2ccccc2)on1)N1CCCCC1 (stereo not given)
171 to 172 °C	CCc1ccc2c(c1)N(Cc1ccc(-c3ccccc3C#N)cc1)C(=O)CC2(C)C
74 to 79 °C	Cc1ccc(Oc2ccncc2N)cn1
105 to 108 °C	CCOC(=O)C1=C(C)NC(c2cscn2)=NC1c1cccc(Cl)c1 (stereo not given)
56 to 58 °C	COC(=O)c1ccc(OCCCl)cc1
111 to 112 °C	O=C(O)CCCC=C(c1ccccc1)c1ccccc1
249 to 250 °C	Clc1nc2ccccc2c2[nH]c3ccccc3c12
156 to 157 °C	CC(=O)Oc1cccc(C(Br)C(Br)c2ccccc2)c1 (stereo not given)
96 to 98 °C	CC(=O)Nc1ccc(OCCCCCO[N+](=O)[O-])cc1
281 to 283 °C	CCCCn1c(=O)c2cc(C(=O)O)cn2c2cc(Cl)c(Cl)cc21
152 to 154 °C	CC(=O)N1C(=O)c2ccccc2N(C(C)=O)C1C(Cl)(Cl)Cl (stereo not given)
124 to 125 °C	CN(O)C(=O)C=Cc1cccc(Oc2ccccc2)c1
106 to 108 °C	NC(=S)c1ccccc1Nc1cccc(C(F)(F)F)c1
182 °C	O=C(Cc1ccccc1)CC1c2ccccc2C(=O)N1c1ccc2ccc(Cl)nc2n1 (stereo not given)
159 to 160 °C	Cc1ccccc1C(=O)Nn1cc(-c2ccccc2)nc1S
120 to 122 °C	O=C(COc1ccc(Cl)cc1)N1Cc2cccn2Cc2ccccc21
223 to 225 °C	O=c1[nH]c(=Cc2ccc(OCc3ccccc3)cn2)c(=O)[nH]c1=CCc1ccccc1
102 to 103 °C	CCOC(=O)c1cc2n(c1)C(C)Nc1ccccc1-2 (stereo not given)
50 °C	COc1cccc(C(O)CNCCN)c1 (stereo not given)
121 to 123 °C	Cc1cc(Oc2c(Cl)cc(C(F)(F)F)cc2Cl)nn1C(=O)NCc1ccccn1
144 to 146 °C	COc1cccc(C2Cc3ccccc3C2=O)c1 (stereo not given)
123 to 124 °C	CN(C)Cc1c(-c2ccccc2)nc2c(C(=O)NC(C#N)c3cccc(F)c3)cccn12 (stereo not given)
156 to 157 °C	COc1cccc(CSc2ncccc2C(=O)O)c1
